Patent publication US9828368B2 (MERCK SHARP & DOHME CORP., priority 2013, dated 2017)

Legend:
human orexin-2 receptor = human orexin-2 receptor (Homo sapiens (Human), UniProt O43614); assay: FLIPR Ca2+ flux assay, hOX2R; type: cell-based; conditions: CHO cells expressing human orexin-2 receptor; agonist 70 pM Ala-6,12 orexin-A
hOX1R = hOX1R (Homo sapiens, UniProt O43613); assay: FLIPR Ca2+ flux assay, hOX1R; type: cell-based; conditions: CHO cells; agonist 70 pM Ala-6,12 orexin-A; rat orexin-1 receptor; read-out: hOX1R FLIPR IC50

Chain of human orexin-2 receptor (O43614 whole entry): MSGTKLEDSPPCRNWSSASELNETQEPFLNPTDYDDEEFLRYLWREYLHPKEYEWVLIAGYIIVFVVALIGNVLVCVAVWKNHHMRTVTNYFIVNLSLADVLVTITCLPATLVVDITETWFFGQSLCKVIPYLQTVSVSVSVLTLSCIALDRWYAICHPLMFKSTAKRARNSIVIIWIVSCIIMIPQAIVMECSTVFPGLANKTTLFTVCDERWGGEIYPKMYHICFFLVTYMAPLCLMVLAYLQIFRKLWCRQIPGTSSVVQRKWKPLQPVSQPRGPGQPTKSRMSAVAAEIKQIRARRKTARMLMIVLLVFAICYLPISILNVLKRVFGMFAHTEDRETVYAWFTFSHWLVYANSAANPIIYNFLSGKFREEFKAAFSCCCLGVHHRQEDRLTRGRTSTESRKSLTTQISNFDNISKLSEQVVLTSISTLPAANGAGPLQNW

Row | Molecule | IC50 (human orexin-2 receptor) | IC50 (hOX1R)
1 | C[C@@H]1CC[C@@H](c2ncc(C3CCC3)o2)CN1C(=O)c1ccccc1-n1nccn1 [Example 75, (2-(2H-1,2,3-Triazol-2-yl)phenyl)((2R, 5R)-5-(5-cyclobutyloxazol-2-yl)-2-methylpiperidin-1-yl)methanone] | 16 nM | 59 nM
2 | C[C@@H]1CC[C@@H](c2ncc(C3CC3)o2)CN1C(=O)c1ccccc1-n1nccn1 [Example 76, (2-(2H-1,2,3-Triazol-2-yl)phenyl)((2R, 5R)-5-(5-cyclopropyloxazol-2-yl)-2-methylpiperidin-1-yl)methanone] | 33 nM | 973 nM
3 | C[C@@H]1CC[C@@H](c2nc(-c3ccccc3)c(-c3ccccc3)o2)CN1C(=O)c1ccccc1-n1nccn1 [Example 77, (2-(2H-1,2,3-Triazol-2-yl)phenyl)((2R,5R)-5-(4,5-diphenyloxazol-2-yl)-2-methylpiperidin-1-yl)methanone] | 515 nM | 451 nM
4 | ((2R,5R)-5-(4-(2-Hydroxypropan-2-yl)-5- methyloxazol-2-yl)-2-methylpiperidin-1-yl)(2- methoxyphenyl)methanone [Example 30] | 29.4 nM | > 10000 nM
